Measured values from PMC5869419 (Journal of Natural Products, 2018).
Where two headings read alike, the source gives them in different places.

Assays:
[1] = tested on: H3N2 influenza virus A/Hong Kong/68 (HK/68); assay: CPE inhibition assay with HK/68 in MDCK cells; format: cell-based; conditions: for IC50: Influenza A virus; for anti-influenza virus activity (in words): HK/68 and Jena/8178, CPE inhibition in MDCK cells; for selectivity index IAV HK/68 [CC50/IC50]: CC50 in MDCK cells / IC50 HK/68
[2] = tested on: H1N1 influenza virus A/Jena/8178/09 (Jena/8178); assay: CPE inhibition assay with Jena/8178 in MDCK cells; format: cell-based; conditions: for IC50: Influenza A virus, H1N1, MDCK, 48 h, read-out: IC50 of CPE IAV Jena/8178; for selectivity index IAV Jena/8178 [CC50/IC50]: CC50 in MDCK cells / IC50 Jena/8178
in vitro = conditions: dog
[3] = H3N2, MDCK, 48 h, read-out: IC50 of CPE IAV HK/68
[4] = H3N2, HK/68 and Jena/8178 together, CPE inhibition in MDCK cells, read-out: IC50 values, anti-influenza virus activity stated for both strains together
[5] = HK/68 and Jena/8178 together, CPE inhibition in MDCK cells

Structure (SMILES)	IC50 [1, 3]	IC50 [1, 4]	IC50 [2]	CC50 in MDCK cells (MDCK cells)	CC50 at 72 h (in vitro)	selectivity index IAV Jena/8178 [CC50/IC50] [2]	CC50 (in vitro)	anti-influenza virus activity (in words) [1]	selectivity index IAV HK/68 [CC50/IC50] [1]	IC50 values, anti-influenza virus activity stated for both strains together [1, 5]
CC1(C)C[C@H]2C3=CC[C@@H]4[C@@]5(C)C[C@@H](O)[C@H](O)C(C)(C)[C@@H]5CC[C@@]4(C)[C@]3(C)CC[C@@]2(C(=O)O)C[C@H]1OC(=O)/C=C/c1ccccc1 [21-cinnamoyloxy-maslinic acid]	11.3 ± 7.35 µM	7 to 11 µM	6.9 ± 2.97 µM	lost their cytotoxicity	> 100 µM					
CC1(C)C[C@H]2C3=CC[C@@H]4[C@@]5(C)CC[C@H](O)C(C)(C)[C@@H]5CC[C@@]4(C)[C@]3(C)CC[C@@]2(C(=O)O)C[C@H]1OC(=O)/C=C/c1ccccc1 [21-cinnamoyloxy-oleanolic acid]	8.9 ± 3.95 µM	7 to 11 µM	6.8 ± 4.12 µM	lost their cytotoxicity	> 100 µM					
C=C(C)[C@@H]1CC[C@]2(C(=O)O)CC[C@]3(CO)[C@H](CC[C@@H]4[C@@]5(C)C[C@@H](O)[C@H](O)C(C)(C)[C@@H]5CC[C@]43C)[C@@H]12 [27-hydroxyalphitolic acid]			26.5 ± 4.71 µM			>4	> 100 µM			
C=C(C)[C@@H]1CC[C@]2(C(=O)O)CC[C@]3(C)[C@H](CC[C@@H]4[C@@]5(C)C[C@@H](O)[C@H](O[C@@H]6O[C@H](CO)[C@@H](O)[C@H](O)[C@H]6O[C@@H]6OC[C@@H](O)[C@H](O)[C@H]6O)C(C)(C)[C@@H]5CC[C@]43C)[C@@H]12 [Compound 1, 3-O-β-D-Xylopyranosyl-(1→2)-β-D-glucopyranosylalphitolic acid]			38.6 ± 15.7 µM				> 100 µM	only weak or no anti-influenza virus activity		
C=C(C)[C@@H]1CC[C@]2(C(=O)O)CC[C@]3(C)[C@H](CC[C@@H]4[C@@]5(C)C[C@@H](O)[C@H](O[C@@H]6O[C@H](CO)[C@@H](O[C@@H]7O[C@H](C)[C@@H](O)[C@H](O)[C@@H]7O)[C@H](O)[C@H]6O[C@@H]6OC[C@@H](O)[C@H](O)[C@H]6O)C(C)(C)[C@@H]5CC[C@]43C)[C@@H]12 [Compound 2, 3-O-β-D-Xylopyranosyl-(1→2)-[α-L-rhamnopyranosyl-(1→4)]-β-D-glucopyranosylalphitolic acid]	1.1 ± 0.44 µM		1.9 ± 0.08 µM		10.4 ± 0.52 µM	6			11	
C=C(C)[C@@H]1CC[C@]2(C(=O)O)CC[C@]3(CO)[C@H](CC[C@@H]4[C@@]5(C)C[C@@H](O)[C@H](O[C@@H]6O[C@H](CO)[C@@H](O)[C@H](O)[C@H]6O[C@@H]6OC[C@@H](O)[C@H](O)[C@H]6O)C(C)(C)[C@@H]5CC[C@]43C)[C@@H]12 [Compound 3, 3-O-β-D-Xylopyranosyl-(1→2)-β-D-glucopyranosyl-27-hydroxyalphitolic acid]							> 100 µM	only weak or no anti-influenza virus activity		
C=C(C)[C@@H]1CC[C@]2(C(=O)O)CC[C@]3(CO)[C@H](CC[C@@H]4[C@@]5(C)C[C@@H](O)[C@H](O[C@@H]6O[C@H](CO)[C@@H](O)[C@H](O)[C@H]6O[C@@H]6O[C@H](CO)[C@@H](O)[C@H](O)[C@H]6O)C(C)(C)[C@@H]5CC[C@]43C)[C@@H]12 [Compound 4, 3-O-β-D-Glucopyranosyl-(1→2)-β-D-glucopyranosyl-27-hydroxyalphitolic acid]			43 ± 11.8 µM			>2	> 100 µM	only weak or no anti-influenza virus activity		
C[C@H]1O[C@@H](O[C@H]2[C@H](O)[C@@H](O[C@@H]3OC[C@@H](O)[C@H](O)[C@H]3O)[C@H](O[C@H]3[C@H](O)C[C@]4(C)[C@H]5CC=C6[C@@H]7CC(C)(C)CC[C@]7(C(=O)O)CC[C@@]6(C)[C@]5(C)CC[C@H]4C3(C)C)O[C@@H]2CO)[C@@H](O)[C@@H](O)[C@@H]1O [Compound 5, 3-O-β-D-Xylopyranosyl-(1→2)-[α-L-rhamnopyranosyl-(1→4)]-β-D-glucopyranosylmaslinic acid]	1.7 ± 0.07 µM				15.5 ± 1.69 µM				9	low micromolar range
C[C@H]1O[C@@H](O[C@H]2[C@H](O)[C@@H](O[C@@H]3OC[C@@H](O)[C@H](O)[C@H]3O)[C@H](O[C@H]3[C@H](O)C[C@]4(C)[C@H]5CC=C6[C@@H]7CC(C)(C)[C@H](OC(=O)/C=C/c8ccccc8)C[C@]7(C(=O)O)CC[C@@]6(C)[C@]5(C)CC[C@H]4C3(C)C)O[C@@H]2CO)[C@@H](O)[C@@H](O)[C@@H]1O [Compound 6, 3-O-β-D-Xylopyranosyl-(1→2)-[α-L-rhamnopyranosyl-(1→4)]-β-D-glucopyranosyl-21-cinnamoyloxymaslinic acid]	1.8 ± 0.23 µM		1.8 ± 0.03 µM		5.8 ± 0.69 µM	3			3	low micromolar range
C[C@H]1O[C@H](O[C@H]2[C@H](O[C@H]3[C@H](O[C@H]4CC[C@]5(C)[C@H]6CC=C7[C@@H]8CC(C)(C)[C@H](OC(=O)/C=C/c9ccccc9)C[C@]8(C(=O)O)CC[C@@]7(C)[C@]6(C)CC[C@H]5C4(C)C)OC[C@@H](O)[C@@H]3O)OC[C@@H](O)[C@@H]2O)[C@@H](O)[C@@H](O)[C@@H]1O [Compound 7, 3-O-α-L-Rhamnopyranosyl-(1→2)-β-D-xylopyranosyl-(1→2)-β-D-xylopyranosyl-21-cinnamoyloxyoleanolic acid]	0.05 ± 0.02 µM	0.05 to 0.27 µM	0.27 ± 0.13 µM		1.5 ± 0.8 µM	6			31	
C[C@H]1O[C@H](O[C@@H]2CO[C@@H](O[C@H]3CC[C@]4(C)[C@H]5CC=C6[C@@H]7CC(C)(C)[C@H](OC(=O)/C=C/c8ccccc8)C[C@]7(C(=O)O)CC[C@@]6(C)[C@]5(C)CC[C@H]4C3(C)C)[C@H](O[C@@H]3OC[C@@H](O)[C@H](O)[C@H]3O[C@H]3O[C@H](C)[C@@H](O)[C@H](O)[C@@H]3O)[C@H]2O)[C@@H](O)[C@@H](O)[C@@H]1O [Compound 8, 3-O-α-L-Rhamnopyranosyl-(1 →2)-β-D-xylopyranosyl-(1 →2)-[α-L-rhamnopyranosyl-(1 →4)]-β-D-xylopyranosyl-21-cinnamoyloxyoleanolic acid]	0.17 ± 0.18 µM	0.05 to 0.27 µM	0.16 ± 0.07 µM		1.2 ± 0.1 µM	7			7	
C=C(C)[C@@H]1CC[C@]2(C(=O)O)CC[C@]3(C)[C@H](CC[C@@H]4[C@@]5(C)C[C@@H](O)[C@H](O)C(C)(C)[C@@H]5CC[C@]43C)[C@@H]12 [alphitolic acid]					49.9 ± 6.68 µM					
CC1(C)CC[C@]2(C(=O)O)CC[C@]3(C)C(=CC[C@@H]4[C@@]5(C)C[C@@H](O)[C@H](O)C(C)(C)[C@@H]5CC[C@]43C)[C@@H]2C1 [maslinic acid]					23.3 ± 2.93 µM					
CCOC(=O)C1=C[C@@H](OC(CC)CC)[C@H](NC(C)=O)[C@@H](N)C1 [oseltamivir, reference compound]	0.003 ± 0.001 µM		0.064 ± 0.013 µM							
